Entries after “also recorded” stand apart in the source; their conditions may differ. Read-outs that look alike come from different tables or passages of the source. Starred links: 1 amine or outer side, 2 acyl side, 3 side chain; linkers in the order of their positions; H or OH if unused. Positions of bridges follow the written chain, without caps; N, C: chain ends. Non-standard residues stand in square brackets, D forms with d. Residues, ends and D or L forms follow the SMILES beside them. Chains are numbered I, II in the order given. Actinocin(9to1) = Cc1c2oc3c(C)ccc(C(=O)[*:1])c3nc-2c(C(=O)[*:2])c(N)c1=O; NMeV = CN[C@H](C(=O)O)C(C)C; Sar = CNCC(=O)O
Assays:
cathepsin B [1] = target: T1, cathepsin B (Mus musculus, UniProt P10605); assay: Inhibition of cathepsin B activity, FL83B cells; format: cell-based; conditions: FL83B non-tumour cells
T1 construct: Cathepsin B activity in the cell medium; endogenous in cells; host or cells: Hepa-1c1c7 (CRL-2026)
Method: (§1) For the determination of the cathepsin B’s inhibition activity, its superficial expression in two tumour cell lines (ACHN and Hepa-1c1c7 cells) and two non-tumour cell lines (TKPTS and FL83B cells) was evaluated by flow cytometry.
(§2) Cathepsin B activity in the cell medium was evaluated by using a fluorogenic substrate: Abz-Gly-Ile-Val-Arg~Ala-Lys(Dnp)-OH. This peptide substrate was purchased from Bachem AG (Bubendorf, Switzerland). The reactions were performed at 40 °C for 10 min [38]. Stock solutions of inhibitory compounds were prepared in DMSO (in a concentration of 10 mM). From these stock solutions, increasing concentrations of the inhibitory compounds (1 and 100 nM) were prepared. […] Fluorescence was measured with excitation/emission wavelength values of 320 and 420 nm, respectively, using the Cary Eclipse fluorescence spectrophotometer (Agilent Technologies, Melbourne, Australia).
(§3) All analyses were performed using version 9.0.0 of GraphPad Prism Software LLC from 1994–2020 (www.graphpad.com, accessed on 2 January 2023). Using non-linear regression, the values of 50% cytotoxic concentration (CC50) and 50% inhibitory concentration (IC50) were determined. In addition, a one-way ANOVA statistical analysis was performed to assess whether the differences between the values were statistically significant (p < 0.05; p < 0.001, Tukey’s multiple comparisons test). All experiments were performed in triplicate.

cathepsin B [2] = target: T1, cathepsin B; assay: Inhibition of cathepsin B activity, Hepa-1c1c7 cells; format: cell-based; conditions: Hepa-1c1c7 tumour cells
Method: as §1, §2, §3

C57BL/6 mice = assay: Acute toxicity in vivo; conditions: 4 mg/kg i.p.; for Physical aspect and weight after the third day of treatment: mice, day 3
Method: Adult male C57BL/6 mice weighing 25–35 g were purchased from the Centre for Laboratory Animals of the Faculty of Medicine from the University Autónoma of Madrid (Spain) and maintained under controlled temperature conditions (22 ± 2 °C), with a constant 12 h light-dark cycle and with access to food and water ad libitum.
Five groups (five mice per group) were selected for this study.
All animals were kept under observation for 7 days, during which their physical aspect, behaviour, and the number of deaths were recorded daily. The negative control (normal saline solution) received only the same quantity of the vehicle (distilled water). These tests were carried out in triplicate. All the surviving animals were euthanised at the end of the study, and their vital organs were individually observed by necropsy and checked for overt pathology.

cathepsin B [3] = target: T1, cathepsin B; assay: Inhibition of cathepsin B activity, TKPTS cells; format: cell-based; conditions: TKPTS non-tumour cells
Method: as §1, §2, §3

ACHN cells = assay: SRB viability assay, ACHN cells; format: cell-based; conditions: Homo sapiens, 72 h
From the text: (§4) Two tumour cell lines, ACHN (Human kidney carcinoma) and Hepa-1c1c7 (Human liver carcinoma), and two non-tumour cell lines, TKPTS (Mus musculus kidney normal) and FL83B (Mus musculus liver normal), were used in this study. The cell lines were purchased by the company VALORALIA I MÁS D, SL. From LGC Standards, which is the exclusive distributor of American Type Culture Collection (ATTC) products. […] Likewise, Hepa-1c1c7 (CRL-2026 BSL 1) is an epithelial cell line that was isolated from the liver of a patient with hepatoma. On the other hand, TKPTS (CRL-3361 BSL 2) is a normal cell line with epithelial-like morphology that was isolated in 1997 from the proximal tubule of a mouse kidney. Finally, FL83B (CRL-2390 BSL 1) is a hepatocyte cell that was isolated from the liver of a 15- to 17-day-old foetal mouse in 1969. The cells were maintained in a Dulbecco's modified eagle medium (DMEM, Sigma-Aldrich St. Louis, USA) supplemented with 2 mM L-glutamine (AppliChem, Denmark), 10% foetal bovine serum (FBS, Sigma-Aldrich, USA), 100 units/mL of penicillin and 100 µg/mL of streptomycin (Fisher Scientific, Pittsburgh, USA) in culture flasks, in an incubator with a humidified atmosphere containing 5% CO2, at 37 °C under hypoxic conditions (1% O2), managing to mimic the tumour microenvironment in vivo.
(§5) Cells (200 µL, 2 × 10^4 cells/well) were seeded in 96-well plates and were cultured for 12 h at 37 °C under hypoxic conditions (1% O2). Subsequently, the samples dissolved in dimethyl sulfoxide (DMSO ≥ 99.9% Sigma-Aldrich, CAS Number 67-68-5) were added at different concentrations for 72 h. Actinomycin D (ACT ≥ 95% Sigma-Aldrich, CAS Number 50-76-0) was used as a positive control. Cells were then fixed with 10% trichloroacetic acid (TCA ≥ 99.0% Sigma-Aldrich, CAS Number 76-03-9) for 1 h at 4 °C. After washing with distilled water, 100 μL of 0.4% sulforhodamine B (SRB Dye content 75 % Sigma-Aldrich, CAS Number 3520-42-1) in 1% acetic acid (AcOH ≥ 99.0% Sigma-Aldrich, CAS Number 64-19-7) were added to each well and incubated for 20 min. After washing them three times with 1% TCA, the plates were air-dried, and stained cells were dissolved with 100 μL/well of 10 mM unbuffered tris(hydroxymethyl)aminomethane (Tris Base ≥ 99.9% Sigma-Aldrich, CAS Number 77-86-1). The optical density of the microplates was measured at 540 nm, using an ELISA plate reader, SpectraMax® i3, Molecular Devices.
(§6) All analyses were performed using version 9.0.0 of GraphPad Prism Software LLC from 1994–2020 (www.graphpad.com, accessed on 2 January 2023). Using non-linear regression, the values of 50% cytotoxic concentration (CC50) and 50% inhibitory concentration (IC50) were determined. […]

Hepa-1c1c7 cells = assay: SRB viability assay, Hepa-1c1c7 cells; format: cell-based; conditions: Mus musculus
From the text: as §4, §5, §6

[4] = SRB viability assay, FL83B cells; format: cell-based; conditions: mouse, FL83B non-tumour cell line, hypoxic conditions (1% O2)
From the text: as §4, §5, §6

[5] = SRB viability assay, TKPTS cells; format: cell-based; conditions: mouse, TKPTS non-tumour cell line, hypoxic conditions (1% O2)
From the text: as §4, §5, §6

cathepsin B [6] = target: T2, cathepsin B (Homo sapiens, UniProt P07858); assay: Inhibition of cathepsin B activity, ACHN cells; format: cell-based; conditions: ACHN tumour cells
T2 construct: Cathepsin B activity in the cell medium; endogenous in cells; host or cells: ACHN (CRL-1611)
Method: as §1, §2, §3

[7] = ACHN tumour cell line, SRB, hypoxic conditions (1% O2), read-out: CC50
[8] = Hepa-1c1c7 tumour cell line, SRB, 72 h, hypoxic conditions (1% O2), read-out: CC50
[9] = FL83B normal foetal liver hepatocyte cells
[10] = TKPTS normal kidney proximal tubule cells

T1 sequence (P10605 80-339): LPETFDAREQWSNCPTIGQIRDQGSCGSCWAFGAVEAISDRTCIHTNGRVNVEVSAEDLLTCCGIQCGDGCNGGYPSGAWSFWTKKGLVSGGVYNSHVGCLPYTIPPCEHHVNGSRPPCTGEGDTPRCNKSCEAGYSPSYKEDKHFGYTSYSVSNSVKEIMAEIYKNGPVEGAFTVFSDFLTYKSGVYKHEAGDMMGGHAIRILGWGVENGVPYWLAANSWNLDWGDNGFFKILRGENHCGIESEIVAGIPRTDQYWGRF

| Structure (SMILES) | Ki (cathepsin B [1]) [nM] | Ki (cathepsin B [2]) [nM] | Physical aspect and weight after the third day of treatment (C57BL/6 mice) | Ki (cathepsin B [3]) [nM] | CC50 (ACHN cells; ACHN) [nM] | CC50 (Hepa-1c1c7 cells; Hepa-1c1c7, 72 h) [nM] | CC50 at 72 h [4] [nM] | CC50 at 72 h [5] [nM] | CC50 (ACHN cells; [7]) [nM] | CC50 (Hepa-1c1c7 cells; [8]) [nM] | CC50 at 72 h [4, 9] [nM] | Ki (cathepsin B [6]) [nM] | CC50 at 72 h [5, 10] [nM] | In vivo toxicity (C57BL/6 mice; murine model, 4 mg/kg) |
| --- | --- | --- | --- | --- | --- | --- | --- | --- | --- | --- | --- | --- | --- | --- |
| CCCNC(=O)[C@H]1O[C@@H]1C(=O)N[C@H](C(=O)N1CCC[C@H]1C(=O)O)[C@@H](C)CC (relative stereo) [CA 074, reference compound] | 3.08 ± 0.19 | 5.99 ± 0.64 | active and showed no apparent weight loss | 2.39 ± 0.12 |  |  |  |  |  |  |  |  |  |  |
| Cc1c2oc3c(C)ccc(C(=O)N[C@@H]4C(=O)N[C@H](C(C)C)C(=O)N5CCC[C@H]5C(=O)N(C)CC(=O)N(C)[C@@H](C(C)C)C(=O)O[C@@H]4C)c3nc-2c(C(=O)N[C@@H]2C(=O)N[C@H](C(C)C)C(=O)N3CCC[C@H]3C(=O)N(C)CC(=O)N(C)[C@@H](C(C)C)C(=O)O[C@@H]2C)c(N)c1=O [Actinomycin, Actinomycin D, reference compound] (I: T[dV]P[Sar][NMeV] / II: T[dV]P[Sar][NMeV]; ester I:1-I:C, II:1-II:C; linker I:N-II:N via Actinocin(9to1)) |  |  |  |  | 9 ± 0.6 | 14 ± 0.6 | 6 ± 0.6 | 3 ± 0.5 |  |  |  |  |  |  |
| CCCCCC1=NN(C(=O)CCO)O[C@H](CCCCC)C1 [Compound 1, 1-[(6R)-5,6-dihydro-4,6-dipentyl-2H-1,2,3-oxadiazin-2-yl]-3-hydroxypropan-1-one] | 2.61 ± 0.02 | 3.37 ± 0.24 | active and showed no apparent weight loss | 2.13 ± 0.04 |  |  |  |  | 760 ± 90 | 1250 ± 60 | 2360 ± 100 | 3.06 ± 0.13 | 1100 ± 50 |  |
| CCCCCC1=NN(C(=O)CCOC(C)=O)O[C@H](CCCCC)C1 [Compound 2, 3-[(6R)-5,6-dihydro-4,6-dipentyl-2H-1,2,3-oxadiazin-2-yl]-3-oxopropyl acetate] | 0.66 ± 0.09 | 6.59 ± 0.65 | weight loss and signs of disease (bowed backs, loss of hair shine, and slow movements) | 0.49 ± 0.05 |  |  |  |  | 220 ± 30 | 630 ± 50 | 1940 ± 80 | 5.67 ± 0.68 | 1060 ± 40 |  |
| CCCCCC1=NN(C(=O)CCOC(=O)CCC(=O)O)O[C@H](CCCCC)C1 [Compound 3, 4-{3-[(6R)-5,6-Dihydro-4,6-dipentyl-2H-1,2,3-oxadiazin-2-yl]-3-oxopropoxy}-4-oxobutanoic acid] | 4.55 ± 0.81 | 1.76 ± 0.24 | active and showed no apparent weight loss | 3.29 ± 0.4 |  |  |  |  | 730 ± 100 | 910 ± 80 | 2800 ± 90 | 1.52 ± 0.13 | 1620 ± 60 | no in vivo toxicity; also recorded: did not show toxicity in vivo |
